Consider four compounds from US20080004270A1, “3,4-Disubstituted Pyrazoles as Cyclin Dependent Kinases (Cdk) or Aurora Kinase or Glycogen Synthase 3 (Gsk-3) Inhibitors” (ASTEX THERAPEUTICS LIMITED, priority 2004, published 2008).

One assay addresses Activated CDK2/CyclinA (Homo sapiens, UniProt P24941). The assay is described as follows: Activated CDK2/CyclinA kinase inhibitory activity assay. The class given is biochemical. To be noted: histone H1 substrate, γ33P-ATP filter assay; read-out: IC50 against CDK2 activity. How it is done: Compounds of the invention were tested for kinase inhibitory activity using the following protocol.
(§1) Activated CDK2/CyclinA (Brown et al, Nat. Cell Biol., 1, pp 438-443, 1999; Lowe, E. D., et al Biochemistry, 41, pp 15625-15634, 2002) is diluted to 125 pM in 2.5× strength assay buffer (50 mM MOPS pH 7.2, 62.5 mM β-glycerophosphate, 12.5 mM EDTA, 37.5 mM MgCl2, […], 2.5 mM DTT, 2.5 mM sodium orthovanadate, 0.25 mg/ml bovine serum albumin), and 10 μl mixed with 10 μl of histone substrate mix (60 μl bovine histone H1 (Upstate Biotechnology, 5 mg/ml), 940 μl H2O, 35 μCi γ^33P-ATP) and added to 96 well plates along with 5 μl of various dilutions of the test compound in DMSO (up to 2.5%). The reaction is allowed to proceed for 2 to 4 hours before being stopped with an excess of ortho-phosphoric acid (5 μl at 2%).
(§2) γ^33P-ATP which remains unincorporated into the histone H1 is separated from phosphorylated histone H1 on a Millipore MAPH filter plate. The wells of the MAPH plate are wetted with 0.5% orthophosphoric acid, and then the results of the reaction are filtered with a Millipore vacuum filtration unit through the wells. Following filtration, the residue is washed twice with 200 μl of 0.5% orthophosphoric acid. Once the filters have dried, 20 μl of Microscint 20 scintillant is added, and then counted on a Packard Topcount for 30 seconds.
(§3) The % inhibition of the CDK2 activity is calculated and plotted in order to determine the concentration of test compound required to inhibit 50% of the CDK2 activity (IC50).

Another assay addresses T1, CDK1/CyclinB (Homo sapiens, UniProt P06493).
T1 construct: purchased Upstate Discovery
The assay is described as follows: Activated CDK1/CyclinB kinase inhibitory activity assay. The class given is biochemical. The following applies: histone H1 substrate, γ33P-ATP filter assay; read-out: IC50 against CDK1 activity. As for the experimental part:
as §1, §2, §3
CDK1/CyclinB assay is identical to the CDK2/CyclinA above except that CDK1/CyclinB (Upstate Discovery) is used and the enzyme is diluted to 6.25 nM.

T1 sequence (P06493 whole entry): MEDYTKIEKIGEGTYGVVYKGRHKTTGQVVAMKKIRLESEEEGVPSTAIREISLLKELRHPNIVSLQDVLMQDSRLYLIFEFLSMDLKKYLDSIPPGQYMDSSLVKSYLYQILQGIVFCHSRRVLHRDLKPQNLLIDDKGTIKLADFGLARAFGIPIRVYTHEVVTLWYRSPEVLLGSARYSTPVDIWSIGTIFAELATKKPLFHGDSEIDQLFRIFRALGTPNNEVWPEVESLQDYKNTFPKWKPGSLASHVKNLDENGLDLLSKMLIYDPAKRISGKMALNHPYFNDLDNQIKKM
T1 sequence (P14635 whole entry partner): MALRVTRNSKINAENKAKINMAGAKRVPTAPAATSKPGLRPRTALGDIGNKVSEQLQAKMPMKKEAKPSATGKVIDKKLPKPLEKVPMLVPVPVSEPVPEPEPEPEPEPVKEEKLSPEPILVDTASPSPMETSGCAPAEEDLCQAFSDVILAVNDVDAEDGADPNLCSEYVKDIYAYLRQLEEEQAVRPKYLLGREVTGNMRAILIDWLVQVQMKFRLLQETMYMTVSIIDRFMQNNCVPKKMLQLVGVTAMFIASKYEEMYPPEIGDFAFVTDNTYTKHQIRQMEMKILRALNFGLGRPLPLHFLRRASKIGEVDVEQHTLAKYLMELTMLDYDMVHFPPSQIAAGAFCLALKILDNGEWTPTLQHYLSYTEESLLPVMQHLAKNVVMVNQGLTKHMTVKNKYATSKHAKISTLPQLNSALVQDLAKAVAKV

The IC50 is the concentration needed to halve the response being measured. Regarding `O=C(Nc1c[nH]nc1-c1nc2cc[nH]c(=O)c2[nH]1)c1c(F)cccc1F` [Example 1, 2,6-difluoro-N-[3-(4-oxo-4,5-dihydro-3H-imidazo[4,5-c]pyridin-2-yl)-1H-pyrazol-4-yl]-benzamide], the half-maximal inhibitory concentration (IC50) at Activated CDK2/CyclinA and at CDK1/CyclinB was < 1000 nM throughout.
With `CCN1CCc2[nH]c(-c3n[nH]cc3NC(=O)c3c(F)cccc3F)nc2C1` [Example 6, N-[3-(5-ethyl-4,5,6,7-tetrahydro-1H-imidazo[4,5-c]pyridine-2-yl)-1H-pyrazol-4-yl]-2,6-difluoro-benzamide], the 50% inhibitory concentration (IC50) at Activated CDK2/CyclinA and on CDK1/CyclinB was < 1000 nM each time.
Take `O=C(Nc1c[nH]nc1-c1nc2c([nH]1)CCN(CCF)C2)c1c(F)cccc1F` [Example 7, 2,6-difluoro-N-{3-[5-(2-fluoro-ethyl)-4,5,6,7-tetrahydro-1H-imidazol[4,5-c]pyridine-2-yl]-1H-pyrazol-4-yl}-benzamide]: the concentration for half-maximal inhibition (IC50) on Activated CDK2/CyclinA and on CDK1/CyclinB was < 1000 nM in each case.
On to `O=C(Nc1c[nH]nc1-c1nc2c([nH]1)CCNC2)c1c(F)cccc1F` [Example 4, 2,6-difluoro-N-[3-(4,5,6,7-tetrahydro-1H-imidazol[4,5-c]pyridin-2-yl)-1H-pyrazol-4-yl]-benzamide], for which the IC50 on Activated CDK2/CyclinA and on CDK1/CyclinB was < 1000 nM throughout.
